Experiment [1] relates to Mycobacterium tuberculosis. The experiment is described as follows: Antimycobacterial activity against multidrug resistance Mycobacterium tuberculosis 16883 clinical isolate assessed as inhibition of bacterial growth incubated for 7 days by MABA assay. The format is functional. The conditions noted are these: Mycobacterium tuberculosis, 16883, 168 h; time 7 day. Background: Resazurin is reduced to fluorescent resorufin, in cell work by metabolically active cells.

In experiment [2] the test system is Mycobacterium tuberculosis. Nature of the experiment: Antimycobacterial activity against multidrug resistance Mycobacterium tuberculosis 16995 clinical isolate assessed as inhibition of bacterial growth incubated for 7 days by MABA assay. Type of experiment: functional. To be noted: Mycobacterium tuberculosis, 16995, 168 h; time 7 day.

On to `CC(c1ccc(Cl)cc1)N1CC2(CCN(c3nc(=O)c4cc(C(F)(F)F)cc([N+](=O)[O-])c4s3)CC2)C1` (centres undefined), for which the MIC in experiment [1] and in experiment [2] was less than 0.016 µg/mL in each case.
As to `CC(c1ccc(Br)cc1)N1CC2(CCN(c3nc(=O)c4cc(C(F)(F)F)cc([N+](=O)[O-])c4s3)CC2)C1` (centres undefined), the MIC in experiment [1] and in experiment [2] was less than 0.016 µg/mL throughout.
Turning to `CC(c1cc(F)cc(F)c1)N1CC2(CCN(c3nc(=O)c4cc(C(F)(F)F)cc([N+](=O)[O-])c4s3)CC2)C1` (centres undefined), the MIC in experiment [1] and in experiment [2] was less than 0.016 µg/mL in each case.
In the case of `O=c1nc(N2CCC3(CC2)CN(Cc2cc(F)cc(F)c2)C3)sc2c([N+](=O)[O-])cc(C(F)(F)F)cc12`, the MIC in experiment [1] and in experiment [2] was less than 0.016 µg/mL each time.
In the case of `CC(c1cccc(F)c1)N1CC2(CCN(c3nc(=O)c4cc(C(F)(F)F)cc([N+](=O)[O-])c4s3)CC2)C1` (centres undefined), the MIC in experiment [1] and in experiment [2] was less than 0.016 µg/mL throughout.
Take `O=c1nc(N2CCC3(CC2)CN(Cc2ccc(C(F)(F)F)cc2)C3)sc2c([N+](=O)[O-])cc(C(F)(F)F)cc12`: the MIC in experiment [1] and in experiment [2] was less than 0.016 µg/mL each time.
For the molecule `CC(c1ccc(F)c(F)c1)N1CC2(CCN(c3nc(=O)c4cc(C(F)(F)F)cc([N+](=O)[O-])c4s3)CC2)C1` (centres undefined), the MIC in experiment [1] and in experiment [2] was less than 0.016 µg/mL in each case.
Consider `CC(c1ccc(F)cc1)N1CC2(CCN(c3nc(=O)c4cc(C(F)(F)F)cc([N+](=O)[O-])c4s3)CC2)C1` (centres undefined), for which the MIC in experiment [1] and in experiment [2] was less than 0.016 µg/mL each time.
Take `CC(c1ccc(Cl)c(F)c1)N1CC2(CCN(c3nc(=O)c4cc(C(F)(F)F)cc([N+](=O)[O-])c4s3)CC2)C1` (centres undefined): the MIC in experiment [1] and in experiment [2] was less than 0.016 µg/mL each time.
Regarding `CC(c1cc(F)c(F)c(F)c1)N1CC2(CCN(c3nc(=O)c4cc(C(F)(F)F)cc([N+](=O)[O-])c4s3)CC2)C1` (centres undefined), the MIC in experiment [1] and in experiment [2] was less than 0.016 µg/mL throughout.
Regarding `O=c1nc(N2CCC3(CC2)CN(Cc2ccc(F)cc2)C3)sc2c([N+](=O)[O-])cc(C(F)(F)F)cc12`, the minimum inhibitory concentration (MIC) in experiment [1] and in experiment [2] was less than 0.016 µg/mL in each case.
In the case of `O=c1nc(N2CCC3(CC2)CN(Cc2cccc(F)c2)C3)sc2c([N+](=O)[O-])cc(C(F)(F)F)cc12`, the MIC in experiment [1] and in experiment [2] was less than 0.016 µg/mL in each case.
As for `CC(c1ccc(OC(F)(F)F)cc1)N1CCC2(CC1)CN(c1nc(=O)c3cc(C(F)(F)F)cc([N+](=O)[O-])c3s1)C2` (centres undefined), the MIC in experiment [1] and in experiment [2] was less than 0.016 µg/mL throughout.
Take `CC(c1ccc(F)c(Cl)c1)N1CC2(CCN(c3nc(=O)c4cc(C(F)(F)F)cc([N+](=O)[O-])c4s3)CC2)C1` (centres undefined): the MIC in experiment [1] and in experiment [2] was less than 0.016 µg/mL in each case.
Turning to `CC(c1ccc(OC(F)(F)F)cc1)N1CC2(CCN(c3nc(=O)c4cc(C(F)(F)F)cc([N+](=O)[O-])c4s3)CC2)C1` (centres undefined), the MIC in experiment [1] and in experiment [2] was less than 0.016 µg/mL in each case.
Take `O=c1nc(N2CCC3(CC2)CN(Cc2ccc(OC(F)(F)F)cc2)C3)sc2c([N+](=O)[O-])cc(C(F)(F)F)cc12`: the MIC in experiment [1] and in experiment [2] was less than 0.016 µg/mL throughout.
Consider `CC(c1ccc(F)cc1F)N1CC2(CCN(c3nc(=O)c4cc(C(F)(F)F)cc([N+](=O)[O-])c4s3)CC2)C1` (centres undefined), for which the MIC in experiment [1] and in experiment [2] was less than 0.016 µg/mL in each case.
On to `CC(c1ccc(C(F)(F)F)cc1)N1CC2(CCN(c3nc(=O)c4cc(C(F)(F)F)cc([N+](=O)[O-])c4s3)CC2)C1` (centres undefined), for which the MIC in experiment [1] and in experiment [2] was less than 0.016 µg/mL in each case.
As for `O=c1nc(N2CCC3(CC2)CN(Cc2ccc(Br)cc2)C3)sc2c([N+](=O)[O-])cc(C(F)(F)F)cc12`, the MIC in experiment [1] and in experiment [2] was less than 0.016 µg/mL throughout.
As for `NNC(=O)c1ccncc1` [ISONIAZID], the MIC in experiment [1] and in experiment [2] was more than 10 µg/mL throughout.
For `O=c1nc(N2CCN(CC3CCCCC3)CC2)sc2c([N+](=O)[O-])cc(C(F)(F)F)cc12` [MACOZINONE], the MIC in experiment [1] and in experiment [2] was less than 0.016 µg/mL in each case.
In the case of `CO[C@H]1/C=C/O[C@@]2(C)Oc3c(C)c(O)c4c(O)c(c(/C=N/N5CCN(C)CC5)c(O)c4c3C2=O)NC(=O)/C(C)=C\C=C\[C@H](C)[C@H](O)[C@@H](C)[C@@H](O)[C@@H](C)[C@H](OC(C)=O)[C@@H]1C` [RIFAMPIN], the minimum inhibitory concentration (MIC) in experiment [1] and in experiment [2] was more than 10 µg/mL throughout.

A word on the MIC: it is the lowest concentration that inhibits growth of the organism.

The values above are taken from ChEMBL document CHEMBL4680263, “Identification of benzothiazinones containing 2-benzyl-2,7-diazaspiro[3.5]nonane moieties as new antitubercular agents” (Eur J Med Chem, 2020).
